The source made the active and inactive calls. No cut-off for these calls is given here.
Tests used:
[1] = target: T1, Bifunctional epoxide hydrolase 2 (Mus musculus, UniProt P34914); experiment: biochemical
T1 sequence (P34914 whole entry): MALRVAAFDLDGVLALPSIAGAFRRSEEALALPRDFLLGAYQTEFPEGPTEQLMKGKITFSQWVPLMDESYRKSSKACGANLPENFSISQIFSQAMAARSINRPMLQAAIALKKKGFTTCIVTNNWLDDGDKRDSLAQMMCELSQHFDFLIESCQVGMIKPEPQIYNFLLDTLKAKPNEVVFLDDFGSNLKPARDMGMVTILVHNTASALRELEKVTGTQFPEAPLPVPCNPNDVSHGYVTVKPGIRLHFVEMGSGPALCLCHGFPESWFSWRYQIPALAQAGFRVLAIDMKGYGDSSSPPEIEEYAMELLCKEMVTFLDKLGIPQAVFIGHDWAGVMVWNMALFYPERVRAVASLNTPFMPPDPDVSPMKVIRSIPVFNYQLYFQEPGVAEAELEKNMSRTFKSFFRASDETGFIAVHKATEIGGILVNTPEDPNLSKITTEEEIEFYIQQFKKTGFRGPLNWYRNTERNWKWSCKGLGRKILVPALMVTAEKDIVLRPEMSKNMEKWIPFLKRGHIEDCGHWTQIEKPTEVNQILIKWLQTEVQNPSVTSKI
Description: Inhibition of C57BL/6J mouse brain sEH using 14,15-EET as substrate preincubated for 15 mins followed by substrate addition by HPLC-MS analysis

Mus musculus [2] = experiment: Anti-inflammatory activity in BALB/c mouse model of carrageenan-induced paw edema assessed as inhibition of paw swelling at 20 mg/kg, po measured for 0.5 to 6 hrs relative to control; type: functional; settings: time 0.5-6 hrs
Mus musculus [3] = experiment: Anti-inflammatory activity in BALB/c mouse model of carrageenan-induced paw edema at 20 mg/kg, po measured for 0.5 to 6 hrs; type: functional, organism-based; settings: time 0.5-6 hrs
Mus musculus [4] = experiment: Anti-inflammatory activity in BALB/c mouse model of carrageenan-induced paw edema assessed as inhibition of paw swelling at 20 mg/kg, po measured for 0.5 hrs relative to control; type: functional
[5] = Ratio of Cmax in brain to plasma in C57BL/6J mouse at 20 mg/kg, po measured for 24 hrs; type: ADME, organism-based; settings: brain and plasma
[6] = Cmax in liver of C57BL/6J mouse at 20 mg/kg, po measured for 24 hrs; type: ADME, organism-based
[7] = Ratio of AUC (0 to 24 hrs) in liver to plasma in C57BL/6J mouse at 20 mg/kg, po measured for 24 hrs; type: ADME, organism-based; settings: liver and plasma, read-out: Ratio AUC
[8] = AUC (0 to 24 hrs) in brain of C57BL/6J mouse at 20 mg/kg, po measured for 24 hrs; type: ADME, organism-based
[9] = Cmax in plasma of C57BL/6J mouse at 20 mg/kg, po measured for 24 hrs; type: ADME, organism-based
[10] = Ratio of AUC (0 to 24 hrs) in brain to plasma in C57BL/6J mouse at 20 mg/kg, po measured for 24 hrs; type: ADME, organism-based; settings: brain and plasma, read-out: Ratio AUC
[11] = AUC (0 to 24 hrs) in kidney of C57BL/6J mouse at 20 mg/kg, po measured for 24 hrs; type: ADME, organism-based
[12] = AUC (0 to 24 hrs) in plasma of C57BL/6J mouse at 20 mg/kg, po measured for 24 hrs; type: ADME, organism-based
[13] = AUC (0 to 24 hrs) in liver of C57BL/6J mouse at 20 mg/kg, po measured for 24 hrs; type: ADME, organism-based
[14] = Cmax in brain of C57BL/6J mouse at 20 mg/kg, po measured for 24 hrs; type: ADME, organism-based
Mus musculus [15] = experiment: Anti-inflammatory activity in BALB/c mouse model of carrageenan-induced paw edema assessed as inhibition of paw swelling at 20 mg/kg, po measured for 6 hrs relative to control; type: functional
[16] = Ratio of Cmax in kidney to plasma in C57BL/6J mouse at 20 mg/kg, po measured for 24 hrs; type: ADME, organism-based; settings: kidney and plasma
Mus musculus [17] = experiment: Analgesic effect in BALB/c mouse model of acetic acid-induced writhing assessed as reduction in number of writhing episodes at 20 mg/kg, po pretreated for 1 hr followed by acetic acid treatment and measured after 5 to 35 mins relative to control; type: functional; set-up: scale not given: the % may be the effect or the level left; settings: time 65-95 min
Mus musculus [18] = experiment: Anti-inflammatory activity in BALB/c mouse model of carrageenan-induced paw edema assessed as inhibition of paw swelling at 20 mg/kg, po measured for 2 hrs relative to control; type: functional
[19] = Cmax in kidney of C57BL/6J mouse at 20 mg/kg, po measured for 24 hrs; type: ADME, organism-based
[20] = Ratio of Cmax in liver to plasma in C57BL/6J mouse at 20 mg/kg, po measured for 24 hrs; type: ADME, organism-based; settings: liver and plasma
[21] = Ratio of AUC (0 to 24 hrs) in kidney to plasma in C57BL/6J mouse at 20 mg/kg, po measured for 24 hrs; type: ADME, organism-based; settings: kidney and plasma, read-out: Ratio AUC

Structure (SMILES)	IC50 [1]	also measured
CN(C)C(=O)NC1CCN(C(=O)Cc2ccc3c(c2)OCO3)CC1	64900 nM	–
CCC(=O)N1CCC(CNC(=O)NC2CCN(C(=O)Cc3cccc(OC)c3)CC2)CC1	6.13 nM	–
CC(C)CNC(=O)NC1CCN(CCc2ccc3c(c2)OCO3)CC1	1330 nM	–
O=C(Cc1ccc2c(c1)OCO2)NCCCCNC(=O)NCC1CCOCC1	1270 nM	–
O=C(Cc1ccccn1)Nc1cccc(CC(=O)N2CCC(NC(=O)NCc3ccc(OC(F)(F)F)cc3)CC2)c1	3.1 nM	–
CN(C)C(=O)N1CCC(NC(=O)Cc2ccc3c(c2)OCO3)CC1	6390 nM	–
CC(C)CNC(=O)NCCCC#Cc1ccc2c(c1)OCO2	21.9 nM	–
O=C(Cc1ccccn1)Nc1cccc(CC(=O)N2CCC(NC(=O)NCC3CCOCC3)CC2)c1	55.3 nM	–
COc1ccc(CC(=O)N2CCC(NC(=O)NCc3ccc(OC(F)(F)F)cc3)CC2)cc1OC	4.23 nM	–
CCC(=O)N1CCC(CNC(=O)NC2CCN(C(=O)Cc3ccc4c(c3)OCO4)CC2)CC1	9.61 nM	–
CC(C)CNC(=O)N1CCC(NC(=O)Cc2ccc3c(c2)OCO3)CC1	3470 nM	–
CC(C)CNC(=O)NCCCCCNC(=O)Cc1ccc2c(c1)OCO2	261 nM	–
CN(C)C(=O)NCCCC/C=C/c1ccc2c(c1)OCO2	6440 nM	–
CCC(=O)N1CCC(CNC(=O)Nc2ccc3c(c2)CNC(c2cc(OC)cc(OC)c2)C3)CC1 (stereo not drawn)	39.7 nM	–
COc1cc(CC(=O)N2CCC(NC(=O)NCC3CCOCC3)CC2)cc(OC)c1	18.5 nM	–
CC(C)CNC(=O)NCCCNC(=O)Cc1ccc2c(c1)OCO2	4500 nM	–
CCC(=O)N1CCC(NC(=O)NC2CCN(C(=O)Cc3cc(OC)cc(OC)c3)CC2)CC1	163 nM	–
CC(C)C(=O)NCCC/C=C/c1ccc2c(c1)OCO2	4950 nM	–
CCC(=O)N1CCC(CNC(=O)NC2CCN(C(=O)Cc3cccc(NC(=O)Cc4ccccn4)c3)CC2)CC1	20.3 nM	–
CCC(=O)N1CCC(NC(=O)Nc2ccc(OC(F)(F)F)cc2)CC1	–	inhibition in vivo at 20 mg/kg (Mus musculus [2]; Mus musculus, BALB/c): 28.8%
CCC(=O)NCCCCNC(=O)NC1CCN(C(=O)Cc2cc(OC)cc(OC)c2)CC1	1630 nM	–
CCC(=O)N1CCC(CNc2c(NC3CCN(C(=O)Cc4cc(OC)cc(OC)c4)CC3)c(=O)c2=O)CC1	164000 nM	–
COc1cc(CCC(=O)N2CCC(NC(=O)NCc3ccc(OC(F)(F)F)cc3)CC2)cc(OC)c1	0.73 nM	Activity (Mus musculus [3]): Active; Imax (Mus musculus [4]): 28.3%

Structure (SMILES)	IC50 [1]	also measured
O=C(NCc1ccc(OC(F)(F)F)cc1)NC1CCN(C(=O)Cc2ccc3c(c2)OCO3)CC1	0.85 nM	Activity (Mus musculus [3]): Active; Imax (Mus musculus [4]): 36.3%
CC(C)CNC(=O)NCCNC(=O)Cc1ccc2c(c1)OCO2	4310 nM	–
CC(C)CNC(=O)NCCC/C=C/c1ccc2c(c1)OCO2	11.3 nM	–
COc1cccc(CC(=O)N2CCC(NC(=O)NCc3ccc(OC(F)(F)F)cc3)CC2)c1	0.54 nM	Activity (Mus musculus [3]): Active
CC(C)CNC(=O)NC1CCN(C(=O)Cc2ccc3c(c2)OCO3)CC1	25.3 nM	–
COc1cc(OC)cc(C2Cc3ccc(NC(=O)NCc4ccc(OC(F)(F)F)cc4)cc3CN2)c1 (stereo not drawn)	4.34 nM	–
CN(C)C(=O)NCCC/C=C/c1ccc2c(c1)OCO2	260 nM	–
CCC(=O)N1CCC(CNC(=O)NC2CCN(C(=O)Cc3ccc(OC(F)(F)F)cc3)CC2)CC1	10.1 nM	–
COc1cc(CC(=O)N2CCC(NC(=O)NCc3ccc(C#N)cc3)CC2)cc(OC)c1	14.6 nM	–
COc1cc(OC)cc(C(=O)N2CCC(NC(=O)NCc3ccc(OC(F)(F)F)cc3)CC2)c1	2.25 nM	–
CC(C)CNC(=O)NCCCCNC(=O)Cc1ccc2c(c1)OCO2	1.88 nM	–
CCC(=O)N1CCC(CNC(=O)NC2CCN(C(=O)Cc3cc(OC)cc(OC)c3)CC2)CC1	10.8 nM	Kp at 24 h [5]: 0.59; Cmax [6]: 5940 ng/g; Kp at 24 h [7]: 237; AUC(0-t) at 24 h [8]: 173 ng·h/mL; Cmax [9]: 76.7 ng/mL; Kp at 24 h [10]: 0.53; AUC(0-t) at 24 h [11]: 43400 ng·h/mL; AUC(0-t) at 24 h [12]: 323 ng·h/mL; AUC(0-t) at 24 h [13]: 76700 ng·h/mL; Cmax [14]: 44.9 ng/g; inhibition in vivo at 20 mg/kg (Mus musculus [15]): 37.6%; Kp at 24 h [16]: 52.3; Activity (Mus musculus [17]): 60%; inhibition in vivo at 20 mg/kg (Mus musculus [4]; Mus musculus, BALB/c): 38.6%; inhibition in vivo at 20 mg/kg (Mus musculus [18]): 50.8%; Cmax [19]: 4010 ng/g; Kp at 24 h [20]: 77.5; Kp at 24 h [21]: 135
CCC(=O)N1CCC(CNC(=O)NC2CCN(C(=O)Cc3cccc(OC(F)(F)F)c3)CC2)CC1	18.8 nM	–
COc1ccc(CC(=O)N2CCC(NC(=O)NCC(C)C)CC2)cc1OC	20.2 nM	–
COc1cc(CC(=O)N2CCC(NC(=O)Nc3ccc(OC(F)(F)F)cc3)CC2)cc(OC)c1	15.7 nM	–
O=C(NCc1ccc(OC(F)(F)F)cc1)NC1CCN(C(=O)Cc2ccc(OC(F)(F)F)cc2)CC1	2.24 nM	–
CCC(=O)N1CCC(CNC(=O)Nc2ccc3cc(-c4cc(OC)cc(OC)c4)ncc3c2)CC1	5.24 nM	–
CS(=O)(=O)c1ccc(CC(=O)N2CCC(NC(=O)NCc3ccc(OC(F)(F)F)cc3)CC2)cc1	3.77 nM	Imax (Mus musculus [4]): 35.9%
COc1cc(OC)cc(-c2cc3ccc(NC(=O)NCc4ccc(OC(F)(F)F)cc4)cc3cn2)c1	1.95 nM	Imax (Mus musculus [2]): 12.7%
CC(C)CNC(=O)NCC1CCN(C(=O)Cc2ccc3c(c2)OCO3)CC1	211 nM	–
COc1cc(CC(=O)N2CCC(NC(=O)NCC(C)C)CC2)cc(OC)c1	10.9 nM	–
COc1cc(CC(=O)N2CCC(NC(=O)NCCN(C)C)CC2)cc(OC)c1	15700 nM	–
O=C(NCc1ccc(OC(F)(F)F)cc1)NC1CCN(C(=O)Cc2cccc(OC(F)(F)F)c2)CC1	0.91 nM	Activity (Mus musculus [3]): Active; Imax (Mus musculus [4]): 39.7%
